Read-outs that look alike come from different tables or passages of the source. Marks after values point to notes of the source that are not given here.

The conditions of data set [1]: male, ICR, mouse, in vivo, ip, 100 ng/kg, 0.5 h.
Method: Mouse CSF was obtained according the techniques described by Jin et al. (2007). […] Thirty minutes or 24 h later, the mice were anaesthetized with intraperitoneal injection of pentobarbital. The skin over the posterior neck was removed by two incisions, the first in the midline from the low cervical area to the anterior cranium and the second across the craniocervical junction. Subcutaneous tissue and nuchal muscles were exposed, sectioned along the rim of the occipital bone and then removed laterally unveiling the glistening clear arachnoid membrane overlying the cisterna magna. A micropipette was guided into the cisterna magna.
The micropipette was constructed by cutting a 30‐gauge needle with scissors to approximately 6–7 mm. The needle was then inserted 4–5 mm into the lumen of a 10 μL micropipette. CSF samples were obtained between 8.00 and 11.00 AM, and usually 5 μL of clear CSF was obtained.
(§1) Protein content was determined using a Bio‐Rad protein assay kit and bovine serum albumin assay standard (Bio‐Rad, Hercules, CA).
The target of another data set is T1, human OT receptors (Homo sapiens, UniProt P30559).
T1 construct: expressed in transfected cells; host or cells: HEK-293 cells (stably transformed, G418 selection)
T1 sequence (P30559 1-389): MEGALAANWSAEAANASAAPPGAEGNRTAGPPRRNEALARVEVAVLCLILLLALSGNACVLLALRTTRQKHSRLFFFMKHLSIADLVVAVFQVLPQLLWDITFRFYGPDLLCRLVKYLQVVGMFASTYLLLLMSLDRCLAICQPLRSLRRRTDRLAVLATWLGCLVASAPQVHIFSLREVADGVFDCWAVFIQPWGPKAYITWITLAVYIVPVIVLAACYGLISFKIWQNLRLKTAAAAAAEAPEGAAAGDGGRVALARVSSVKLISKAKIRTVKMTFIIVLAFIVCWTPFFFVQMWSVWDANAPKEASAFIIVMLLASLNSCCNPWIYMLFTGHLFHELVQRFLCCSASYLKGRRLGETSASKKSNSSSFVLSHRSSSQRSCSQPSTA
The format is cell-based. As for the experimental part:
Plasmid constructs were described previously (Amina et al. 2010). Human embryonic kidney HEK‐293 cells were maintained in Dulbecco's Modified Eagle's Medium (DMEM) supplemented with 10% fetal bovine serum (FBS) and Geneticin G418 100 μg/mL at 37°C in a humidified atmosphere of 95% air and 5% CO2. Cells were grown in culture dishes to 80–90% confluence and transfected with the expression plasmid pcDNAHOXTR‐376R or pcDNA3(+) (Invitrogen, Carlsbad, CA) (MOCK‐transfected cells), using FuGENE HD Transfection Reagent (Roche, Basel, Switzerland) in accordance with the manufacturer's instructions.
We measured [Ca^2+]i using the fluorescent Ca^2+ indicator fura‐2‐acetoxymethyl ester (fura‐2/AM). Transfected HEK‐293 cells were loaded with fura‐2/AM to a final concentration of 1 μmol/L in complete medium and incubated at 37°C as reported previously (Ma et al. 2013). After 30‐min loading, the cells were washed three times with HEPES‐buffered saline (HBS) solution (145 mmol/L NaCl, 5 mmol/L KCl, 1 mmol/L MgCl2, 20 mmol/L HEPES‐NaOH, 2 mmol/L CaCl2, 20 mmol/L glucose, pH 7.4). The fluorescence of the cells loaded with fura‐2/AM was then measured at 37°C, at the determined sites, through a pinhole (10–20 μm in diameter). We used alternating excitation wavelengths of 340 and 380 nm in a Ca^2+ microspectrofluorometric system (IX‐73 Model; Olympus, Tokyo, Japan) and Metafluor software (Molecular Devices, Sunnyvale, CA), as described previously (Hashii et al. 2000). […] The ratio of fluorescence at 340 nm and 380 nm (F340/F380) was used to determine [Ca^2+]i. All data were normalized to the baseline fluorescence (F0) recorded 10 s before addition, and given as F/F0 where F – maximal ratio of fluorescence after drug's application.

For data set [2] the following is noted: male, ICR, mouse, in vivo, ip, 100 ng/kg.
Method: Thirty minutes or 24 h later, mice were anesthetized by an intraperitoneal injection of pentobarbital. Blood samples of 0.1 mL were collected by cardiac puncture in EDTA and aprotinin‐coated capillaries and centrifuged at 1600g for 15 min at 4°C. Plasma samples were collected and stored at –80°C until use.
as §1
[3] abbreviates: drug responses at 10^−8 mol/L relative to OT as 100%, HEK‐293 cells expressing pcDNAHOXTR‐376R, mean ± SEM, n = 25.

Regarding `CC[C@H](C)[C@@H]1NC(=O)[C@H](Cc2ccc(O)cc2)NC(=O)[C@@H](N)CSSC[C@@H](C(=O)N2CCC[C@H]2C(=O)N[C@@H](CC(C)C)C(=O)NCC(N)=O)NC(=O)[C@H](CC(N)=O)NC(=O)[C@H](CCC(N)=O)NC1=O` [OT, Oxytocin], the “level of OT in the CSF” value in data set [1] came to 0.347 ± 0.038 ng/mL. Further, on human OT receptors (setting [3]), the “Percentage of maximum Ca^2+ mobilization” value is recorded as 100%. The “plasma level of OT” value in data set [2] (0.5 h) was 0.695 ± 0.052 ng/mL; in data set [2] (24 h), 0.547 ± 0.039 ng/mL.
Regarding `CCCCCCCCCCCCCCCC(=O)N[C@H]1CSSC[C@@H](C(=O)N2CCC[C@H]2C(=O)N[C@@H](CC(C)C)C(=O)NCC(N)=O)NC(=O)[C@H](CC(N)=O)NC(=O)[C@H](CCC(N)=O)NC(=O)[C@H]([C@@H](C)CC)NC(=O)[C@H](Cc2ccc(OC(=O)CCCCCCCCCCCCCCC)cc2)NC1=O` [LOT‐1, lipo‐oxytocin‐1], the “Percentage of maximum Ca^2+ mobilization” value on human OT receptors (setting [3]) is 12.6 ± 1.8 ^a ^, ^c %.
As for `CCCCCCCCCCCCCCCC(=O)Oc1ccc(C[C@@H]2NC(=O)[C@@H](N)CSSC[C@@H](C(=O)N3CCC[C@H]3C(=O)N[C@@H](CC(C)C)C(=O)NCC(N)=O)NC(=O)[C@H](CC(N)=O)NC(=O)[C@H](CCC(N)=O)NC(=O)[C@H]([C@@H](C)CC)NC2=O)cc1` [LOT‐3, lipo‐oxytocin‐3], the “Percentage of maximum Ca^2+ mobilization” value at human OT receptors (10.0) is on record as 13.1 ± 1.8 ^a ^, ^c %.
In the case of `CCCCCCCCCCCCCCCC(=O)N[C@H]1CSSC[C@@H](C(=O)N2CCC[C@H]2C(=O)N[C@@H](CC(C)C)C(=O)NCC(N)=O)NC(=O)[C@H](CC(N)=O)NC(=O)[C@H](CCC(N)=O)NC(=O)[C@H]([C@@H](C)CC)NC(=O)[C@H](Cc2ccc(O)cc2)NC1=O` [LOT‐2, lipo‐oxytocin‐2], the “Percentage of maximum Ca^2+ mobilization” value on human OT receptors (10.0) is on record as 45.5 ± 0.83 ^a ^, ^b %.

These data come from PMC5461640 (Pharmacology Research & Perspectives, 2017).
